Measured values from patent US20190315806A1, “POLYMYXIN DERIVATIVE, PREPARATION METHOD AND APPLICATION THEREOF” (priority 2016, published 2019).
≈ marks a conversion by molar mass, not a printed value. Where two headings read alike, the source gives them in different places. Where a SMILES comes first, the peptide text is derived from it. Bridges are numbered along the chain shown (N, C = ends). [ ]: non-standard residue; d: D form. The star is where a group is joined. dPhe(4-tBu) = CC(C)(C)c1ccc(C[C@@H](N)C(=O)O)cc1; dPhe(4-CF3) = N[C@H](Cc1ccc(C(F)(F)F)cc1)C(=O)O; dBpa = N[C@H](Cc1ccc(C(=O)c2ccccc2)cc1)C(=O)O; dPhe(3-Cl) = N[C@H](Cc1cccc(Cl)c1)C(=O)O; dPhe(4-Me) = Cc1ccc(C[C@@H](N)C(=O)O)cc1; X2 = CC[C@H](C)CCCCC(=O)*; dDab = NCC[C@@H](N)C(=O)O; Octanoyl = CCCCCCCC(=O)*; Dab = NCC[C@H](N)C(=O)O

Columns and labels:
Assay type in all cases: cell-based
[1] = tested on: Pseudomonas aeruginosa ATCC 27853
Protocol: (§1) The minimum inhibitory concentration (MIC) was determined by means of dish double dilution method using a Multipoint inoculator according to the CLSI recommended method. The compounds of the present invention (for example, the compounds prepared in the Embodiments) and the reference substances were diluted twice each time with the broth into various desired concentrations, and appropriate amounts were added to the dishes. Agar medium is melted, and then quantitatively injected into the dish containing the drug solution, and mixed. The final concentrations of the compounds of the invention (e.g., the compounds prepared in the Embodiments) and the controls were 0.03, 0.06, 0.125, 0.25 . . . 128 μg/mL, respectively. The test bacteria were cultured overnight with nutrient broth, brain heart infusion or HTM broth. During the tests, the bacterial solutions were diluted appropriately, and the test bacteria (inoculation amount 10^4 CFU/dot) were inoculated on the surface of the drug-containing agar by a multi-point inoculator. After drying, the bacterial was incubated for 18 to 24 hours at 35° C., the results were observed, the minimum concentrations of the compounds of the present invention (for example, the compounds prepared in the Embodiments) and the controls contained in the dishes with no growth of colonies were MICs.
(§2) The strains used in the antibacterial activity experiments were from the American Type Culture Collection (ATCC) and clinical isolates.
(§3) The strains used for the experiments on antibacterial activity included Escherichia coli ATCC 25922, Klebsiella pneumoniae ATCC BAA-2146 (NDM-1), Pseudomonas aeruginosa ATCC 27853, Acinetobacter baumannii ATCC 19606 and Staphylococcus epidermidis ATCC 12228.
(§4) Tested samples: polymyxin derivatives prepared according to the technical scheme of the present invention;
(§5) Controls: polymyxin B sulfate and colistin (polymyxin E sulfate).

[2] = tested on: Escherichia coli ATCC 25922
Protocol: as §1, §2, §3, §4, §5

[3] = tested on: Staphylococcus epidermidis ATCC 12228
Protocol: as §1, §2, §3, §4, §5

[4] = tested on: Acinetobacter baumannii ATCC 19606
Protocol: as §1, §2, §3, §4, §5

[5] = tested on: Klebsiella pneumoniae ATCC BAA-2146 (NDM-1); assay: Antibacterial activity, MIC by dish double dilution method
Protocol: as §1, §2, §3, §4, §5

[6] = agar dilution, 10^4 CFU/dot, 18 to 24 hours at 35° C.

MIC P. aeruginosa ATCC 27853 ([1]; ATCC 27853) | MIC E. coli ATCC 25922 ([2]; ATCC 25922) | MIC S. epidermidis ATCC 12228 ([3]; ATCC 12228) | MIC A. baumannii ATCC 19606 ([4]; ATCC 19606) | MIC K. pneumoniae ATCC BAA-2146 (NDM-1) ([5]; ATCC BAA-2146) | SMILES | MIC P. aeruginosa ATCC 27853 [1, 6] | MIC E. coli ATCC 25922 [2, 6] | MIC S. epidermidis ATCC 12228 [3, 6] | MIC A. baumannii ATCC 19606 [4, 6] | MIC K. pneumoniae ATCC BAA-2146 (NDM-1) [5, 6]
2 µg/mL (≈ 1.62 µM) | 1 µg/mL (≈ 0.808 µM) | 4 µg/mL (≈ 3.23 µM) | 0.5 µg/mL (≈ 0.404 µM) | 2 µg/mL (≈ 1.62 µM) | CC[C@H](C)CCCCC(=O)N[C@@H](CCN)C(=O)N[C@H](C(=O)N[C@@H](CCN)C(=O)N[C@H]1CCNC(=O)[C@H]([C@@H](C)O)NC(=O)[C@H](CCN)NC(=O)[C@H](CCN)NC(=O)[C@H](CC(C)C)NC(=O)[C@@H](Cc2cccc(Cl)c2)NC(=O)[C@H](CCN)NC1=O)[C@@H](C)O [Compound 19, (S)-6-methyloctanoyl-Dab-Thr-Dab-ring(4-10)[Dab-Dab-D-Phe(3-Cl)-Lue-Dab-Dab-Thr]] (X2-[Dab]T[Dab][Dab][Dab][dPhe(3-Cl)]L[Dab][Dab]T; lactam 4-C) | – | – | – | – | –
2 µg/mL (≈ 1.57 µM) | 1 µg/mL (≈ 0.786 µM) | 8 µg/mL (≈ 6.29 µM) | 1 µg/mL (≈ 0.786 µM) | 2 µg/mL (≈ 1.57 µM) | CC[C@H](C)CCCCC(=O)N[C@@H](CCN)C(=O)N[C@H](C(=O)N[C@@H](CCN)C(=O)N[C@H]1CCNC(=O)[C@H]([C@@H](C)O)NC(=O)[C@H](CCN)NC(=O)[C@H](CCN)NC(=O)[C@H](CC(C)C)NC(=O)[C@@H](Cc2ccc(C(F)(F)F)cc2)NC(=O)[C@H](CCN)NC1=O)[C@@H](C)O [Compound 23, (S)-6-methyloctanoyl-Dab-Thr-Dab-ring(4-10)[Dab-Dab-D-Phe(4-CF3)-Lue-Dab-Dab-Thr]] (X2-[Dab]T[Dab][Dab][Dab][dPhe(4-CF3)]L[Dab][Dab]T; lactam 4-C) | – | – | – | – | –
2 µg/mL (≈ 1.62 µM) | 1 µg/mL (≈ 0.811 µM) | 16 µg/mL (≈ 13 µM) | 1 µg/mL (≈ 0.811 µM) | 2 µg/mL (≈ 1.62 µM) | CC[C@H](C)CCCCC(=O)N[C@@H](CCN)C(=O)N[C@H](C(=O)N[C@@H](CCN)C(=O)N[C@H]1CCNC(=O)[C@H]([C@@H](C)O)NC(=O)[C@H](CCN)NC(=O)[C@H](CCN)NC(=O)[C@H](CC(C)C)NC(=O)[C@@H](Cc2ccc(OC)cc2)NC(=O)[C@H](CCN)NC1=O)[C@@H](C)O [Compound 24, (S)-6-methyloctanoyl-Dab-Thr-Dab-ring(4-10)[Dab-Dab-D-Phe(4-OCH3)-Lue-Dab-Dab-Thr]] (X2-[Dab]T[Dab][Dab][Dab][dY](Me)L[Dab][Dab]T; lactam 4-C) | – | – | – | – | –
2 µg/mL (≈ 1.6 µM) | 1 µg/mL (≈ 0.802 µM) | 16 µg/mL (≈ 12.8 µM) | 2 µg/mL (≈ 1.6 µM) | 2 µg/mL (≈ 1.6 µM) | CCOc1ccc(C[C@H]2NC(=O)[C@H](CCN)NC(=O)[C@@H](NC(=O)[C@H](CCN)NC(=O)[C@@H](NC(=O)[C@H](CCN)NC(=O)CCCC[C@@H](C)CC)[C@@H](C)O)CCNC(=O)[C@H]([C@@H](C)O)NC(=O)[C@H](CCN)NC(=O)[C@H](CCN)NC(=O)[C@H](CC(C)C)NC2=O)cc1 [Compound 25, (S)-6-methyloctanoyl-Dab-Thr-Dab-ring(4-10)[Dab-Dab-D-Phe(4-OEt)-Lue-Dab-Dab-Thr]] (X2-[Dab]T[Dab][Dab][Dab][dY](Et)L[Dab][Dab]T; lactam 4-C) | – | – | – | – | –
2 µg/mL (≈ 1.64 µM) | 1 µg/mL (≈ 0.821 µM) | 8 µg/mL (≈ 6.57 µM) | 0.5 µg/mL (≈ 0.411 µM) | 2 µg/mL (≈ 1.64 µM) | CC[C@H](C)CCCCC(=O)N[C@@H](CCN)C(=O)N[C@H](C(=O)N[C@@H](CCN)C(=O)N[C@H]1CCNC(=O)[C@H]([C@@H](C)O)NC(=O)[C@H](CCN)NC(=O)[C@H](CCN)NC(=O)[C@H](CC(C)C)NC(=O)[C@@H](Cc2ccc(C)cc2)NC(=O)[C@H](CCN)NC1=O)[C@@H](C)O [Compound 26, (S)-6-methyloctanoyl-Dab-Thr-Dab-ring(4-10)[Dab-Dab-D-Phe(4-CH3)-Lue-Dab-Dab-Thr]] (X2-[Dab]T[Dab][Dab][Dab][dPhe(4-Me)]L[Dab][Dab]T; lactam 4-C) | – | – | – | – | –
4 µg/mL (≈ 3.18 µM) | 2 µg/mL (≈ 1.59 µM) | 8 µg/mL (≈ 6.35 µM) | 8 µg/mL (≈ 6.35 µM) | 4 µg/mL (≈ 3.18 µM) | CC[C@H](C)CCCCC(=O)N[C@@H](CCN)C(=O)N[C@H](C(=O)N[C@@H](CCN)C(=O)N[C@H]1CCNC(=O)[C@H]([C@@H](C)O)NC(=O)[C@H](CCN)NC(=O)[C@H](CCN)NC(=O)[C@H](CC(C)C)NC(=O)[C@@H](Cc2ccc(C(C)(C)C)cc2)NC(=O)[C@H](CCN)NC1=O)[C@@H](C)O [Compound 27, (S)-6-methyloctanoyl-Dab-Thr-Dab-ring(4-10)[Dab-Dab-D-Phe(4-tBu)-Lue-Dab-Dab-Thr]] (X2-[Dab]T[Dab][Dab][Dab][dPhe(4-tBu)]L[Dab][Dab]T; lactam 4-C) | – | – | – | – | –
4 µg/mL (≈ 3.06 µM) | 2 µg/mL (≈ 1.53 µM) | 16 µg/mL (≈ 12.2 µM) | 1 µg/mL (≈ 0.765 µM) | 2 µg/mL (≈ 1.53 µM) | CC[C@H](C)CCCCC(=O)N[C@@H](CCN)C(=O)N[C@H](C(=O)N[C@@H](CCN)C(=O)N[C@H]1CCNC(=O)[C@H]([C@@H](C)O)NC(=O)[C@H](CCN)NC(=O)[C@H](CCN)NC(=O)[C@H](CC(C)C)NC(=O)[C@@H](Cc2ccc(C(=O)c3ccccc3)cc2)NC(=O)[C@H](CCN)NC1=O)[C@@H](C)O [Compound 29, (S)-6-methyloctanoyl-Dab-Thr-Dab-ring(4-10)[Dab-Dab-D-Phe(4-benzoyl)-Lue-Dab-Dab-Thr]] (X2-[Dab]T[Dab][Dab][Dab][dBpa]L[Dab][Dab]T; lactam 4-C) | – | – | – | – | –
1 µg/mL (≈ 0.875 µM) | 0.5 µg/mL (≈ 0.437 µM) | >128 µg/mL | 0.5 µg/mL (≈ 0.437 µM) | 0.5 µg/mL (≈ 0.437 µM) | CCCCCCCC(=O)N[C@@H](CCN)C(=O)N[C@H](C(=O)N[C@H](CCN)C(=O)N[C@H]1CCNC(=O)[C@H]([C@@H](C)O)NC(=O)[C@H](CCN)NC(=O)[C@H](CCN)NC(=O)[C@H]([C@@H](C)O)NC(=O)[C@@H](CC(C)C)NC(=O)[C@H](CCN)NC1=O)[C@@H](C)O [Compound 32, octanoyl-Dab-Thr-D-Dab-ring(4-10)[Dab-Dab-D-Leu-Thr-Dab-Dab-Thr]] (Octanoyl-[Dab]T[dDab][Dab][Dab][dL]T[Dab][Dab]T; lactam 4-C) | – | – | – | – | –
1 µg/mL (≈ 0.85 µM) | 0.5 µg/mL (≈ 0.425 µM) | 64 µg/mL (≈ 54.4 µM) | 0.5 µg/mL (≈ 0.425 µM) | 1 µg/mL (≈ 0.85 µM) | CCCCCCCC(=O)N[C@@H](CCN)C(=O)N[C@H](C(=O)N[C@@H](CO)C(=O)N[C@H]1CCNC(=O)[C@H]([C@@H](C)O)NC(=O)[C@H](CCN)NC(=O)[C@H](CCN)NC(=O)[C@H](CC(C)C)NC(=O)[C@@H](Cc2ccccc2)NC(=O)[C@H](CCN)NC1=O)[C@@H](C)O [Compound 54, octanoyl-Dab-Thr-Ser-ring(4-10)[Dab-Dab-D-Phe-Leu-Dab-Dab-Thr]] (Octanoyl-[Dab]TS[Dab][Dab][dF]L[Dab][Dab]T; lactam 4-C) | – | – | – | – | –
2 µg/mL (≈ 1.77 µM) | 0.12 µg/mL (≈ 0.106 µM) | >128 µg/mL | 0.06 µg/mL (≈ 0.0531 µM) | 0.5 µg/mL (≈ 0.442 µM) | CCCCCCCC(=O)N[C@@H](CCN)C(=O)N[C@H](C(=O)N[C@H](CO)C(=O)N[C@H]1CCNC(=O)[C@H]([C@@H](C)O)NC(=O)[C@H](CCN)NC(=O)[C@H](CCN)NC(=O)[C@H]([C@@H](C)O)NC(=O)[C@@H](CC(C)C)NC(=O)[C@H](CCN)NC1=O)[C@@H](C)O [Compound 60, octanoyl-Dab-Thr-D-Ser-ring(4-10)[Dab-Dab-D-Leu-Thr-Dab-Dab-Thr]] (Octanoyl-[Dab]T[dS][Dab][Dab][dL]T[Dab][Dab]T; lactam 4-C) | – | – | – | – | –
– | – | – | – | – | CC[C@H](C)CCCCC(=O)N[C@@H](CCN)C(=O)N[C@H](C(=O)N[C@@H](CCN)C(=O)N[C@H]1CCNC(=O)[C@H]([C@@H](C)O)NC(=O)[C@H](CCN)NC(=O)[C@H](CCN)NC(=O)[C@H](CC(C)C)NC(=O)[C@@H](CC(C)C)NC(=O)[C@H](CCN)NC1=O)[C@@H](C)O [Compound 70, (S)-6-methyloctanoyl-Dab-Thr-Dab-ring(4-10)[Dab-Dab-D-Leu-Leu-Dab-Dab-Thr]] (X2-[Dab]T[Dab][Dab][Dab][dL]L[Dab][Dab]T; lactam 4-C) | 2 µg/mL (≈ 1.71 µM) | 1 µg/mL (≈ 0.855 µM) | 64 µg/mL (≈ 54.7 µM) | 1 µg/mL (≈ 0.855 µM) | 1 µg/mL (≈ 0.855 µM)
